# Laboratory results taken from US20030190338A1, “Topical application of immixture of ascorbic acid + ascorbic acid compounds for augmenting the synthesis of epidermal ceramides” (SOCIETE L'OREAL S.A., priority 2000, published 2003).
# System: skin equivalent marketed by EPISKIN (reconstructed epidermis)
# Assay: Synthesis of epidermal ceramides in reconstructed epidermis (14C acetate labelling, HPTLC, densitometry)
# Type: cell-based
# Details: each compound alone at 15 μg/ml, relative to the untreated control; for % increase in ceramides in the epidermis equivalent: 24 hours of treatment; for % increase in the ceramides in the epidermis equivalent: 48 hours of treatment
# Procedure: Ascorbic acid and derivatives thereof were tested on a skin equivalent marketed by EPISKIN (LYON, France), after culturing the latter for 7 days. The culture and test media were those included in the kit marketed by the supplier. Each compound was tested individually at 15 μg/ml and in combination with 5 μg/ml (as vitamin C equivalent), in the culture medium. The reconstructed epidermes were treated for 24 hours. The control consisted of an identical epidermis equivalent which was subjected to topical application of culture medium without the test compound.
# The reconstructed epidermis was incubated overnight with ^14C acetate (2 μCi/ml) before topical application of vitamin C and derivatives thereof, to monitor the synthesis of the lipids.
# At the end of the incubation period, the epidermis equivalent was detached from its collagenic support. The preparation of the lipids of the epidermis equivalent and their analysis by HPTLC or high-performance thin-layer chromatography, were carried out according to the technique and with the buffers described by M. Ponec (1991, Adv. Lipid Res., 24:83-117).
# At the end of the migration, densitometric analysis of the autoradiograph was carried out using a densitometer of the FUJI brand, model 1800.
# The procedure described in Example 1 was repeated, except that the test was performed over 48 hours instead of 24 hours. In addition, only vitamin C and vitamin CP were tested, the mixture of the two being formulated using 7.5 μg/ml of each vitamin.
SMILES,% increase in ceramides in the epidermis equivalent [%],% increase in the ceramides in the epidermis equivalent [%]
"O=C1O[C@H]([C@@H](O)CO)C(O)=C1O [Vitamin C, ascorbic acid]",54,126
"O=C1O[C@H]([C@@H](O)CO)C(O)=C1O[C@H]1O[C@H](CO)[C@@H](O)[C@H](O)[C@H]1O [Vitamin CG, ascorbyl 2-glucoside]",69,–
"O=C1O[C@H]([C@@H](O)CO)C([O-])=C1OP(=O)([O-])[O-].O=C1O[C@H]([C@@H](O)CO)C([O-])=C1OP(=O)([O-])[O-].[Mg+2].[Mg+2].[Mg+2] [Vitamin CP, Magnesium ascorbyl phosphate]",99,148
